Data published in patent publication US20220370326A1, “TOPICAL COMPOSITIONS AND METHODS OF USING SAME AGAINST MITOCHONDRIAL FRAGMENTATION” (Conopco, Inc., d/b/a UNILEVER, priority 2019, published 2022).
Marks after values point to notes of the source that are not given here.

System: human keratinocytes
Experiment: Mitochondrial fragmentation in keratinocytes - UV study (TPEF imaging of NADH, Fourier PSD analysis)
Type: cell-based
Details: B3 10 mM, SAMe 500 uM; for Effect on mitochondrial fragmentation in Non UV-exposed keratinocytes (in words) / Effect on UV-induced mitochondrial fragmentation (in words): significance P </= 0.05; for Mitochondrial Fragmentation, (+) UV (4 days) / Mitochondrial Fragmentation, (−) UV (3 days): human keratinocytes, higher value = less protection; for Mitochondrial Fragmentation, (+) UV (4 days): 4 days of daily UV exposure (4 J/cm^2 UVA+UVB, 14 min); for Mitochondrial Fragmentation, (−) UV (3 days): not UV-exposed, 3 days of treatment; for Effect on UV-induced mitochondrial fragmentation (in words): keratinocytes, UV exposure for 4 days
Protocol: Test compounds (B3 and SAMe) were purchased from Sigma (St. Loius, MO). Cell culture growth media (Epilife media with calcium (Cat#MEPI500CA) and Epilife media supplement HKGS 100X (Cat#S-001-5)) was purchased from Thermofisher (Waltham, Mass.). Cryopreserved human keratinocytes cells (˜1×10^6 cells) were plated on 12-well glass bottom plates at a confluence of ˜15%. The cells were suspended in primary keratinocyte growth media (Epilife media with calcium) and incubated @ 37° C. for 1d (Day 0). At Day 1, cells began treatment with supplemented primary keratinocyte growth media (Epilife media with calcium supplemented with HKGS 100X; […]) without test compound (Control sample) or containing test compounds B3 (10 mM), SAMe (500 μM) or B3 (10 mM)+SAMe (500 uM). Cell treatment (25m1 media with or without test compounds as above) continued daily for 2 additional days (Days 2 and 3). On Day 4, cells were subjected to UV treatment by replacing media with PBS, exposing cells to UV light (4 J/cm^2 of UVA+UVB) for 14 min and feeding cells with media with or without corresponding test compounds as defined above. UV treatments continued daily for 3 additional days (Days 5, 6 and 7). Image acquisition and analysis on all wells to assess mitochondrial fragmentation was conducted on Day 1, 3, 5 and 8.
For two-photon excited fluorescence (TPEF) imaging, cell cultures were placed in microscope-compatible micro-incubator system, which maintained 37° C. within a humidified environment throughout the imaging session. HEPES buffering agent (Sigma) was added to cell cultures before imaging, which maintained the pH of cell cultures throughout the imaging session. Images were obtained using a Leica TCS SP8 confocal microscope equipped with a tunable (680-1300 nm) titanium-sapphire laser (InSight Deep See; Spectra Physics; Mountain View, Calif.). Images (1024×1024 pixels; 386×386 μm) were acquired using water-immersion 25x objective (NA 0.95; 2.4 mm working distance), with simultaneous collection by two non-descanned photomultiplier tube (PMT) detectors using a filter cube containing filters from Chroma (Bellows Falls, VT), including a 700 nm short pass filter (ET700SP-2P) and a 495 nm dichroic mirror (495DCXR). To isolate NADH fluorescence, a 460(±20) nm emission filter (Chroma, ET460/40M-2P), corresponding to the NADH emission peak, was placed before one of the non-descanned detectors. NADH fluorescence images were acquired from this 460 nm channel using 755 nm excitation. FAD fluorescence was isolated using a 525(±25) nm emission filter (Chroma, ET525/50M-2P) for the other non-descanned detector and 860 nm excitation. The two-photon action cross section of NADH decreases by several orders of magnitude between 755 nm and 860 nm excitation, enabling an efficient isolation of FAD at longer wavelengths. The fluorescence lifetime images (512×512 pixels; 386×386 μm) corresponding to NADH were acquired under the same excitation and emission settings, using SymPho software. PMT gain was adjusted for each image to maximize contrast while preventing a saturated pixel intensity value. The PMT gain and laser power were recorded for each image and used to normalize fluorescence intensity.
To assess mitochondrial fragmentation, a previously-established Fourier transform technique was used to obtain power spectral density (PSD) curves from each image. […]

Structure (SMILES) | Effect on mitochondrial fragmentation in Non UV-exposed keratinocytes (in words) | Mitochondrial Fragmentation, (+) UV (4 days) | Mitochondrial Fragmentation, (−) UV (3 days) | Effect on UV-induced mitochondrial fragmentation (in words)
NC(=O)c1cccnc1 [B3, Nicotinamide] | does not significantly reduce mitochondrial fragmentation | 1.34 ^d | 1.18 | effective at reducing this UV-induced effect down to control levels
C[S+](CC[C@H](N)C(=O)[O-])C[C@H]1O[C@@H](n2cnc3c(N)ncnc32)[C@H](O)[C@@H]1O (stereo partly drawn) [SAMe, S-adenosyl-L-methionine] | does not significantly reduce mitochondrial fragmentation | 1.58 ^c,e | 1.30 | increases mitochondrial fragmentation beyond UV-exposed levels
